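Cells were grown in 96-well plates and exposed to each compound for 48 hours at five concentrations; endpoints were interpolated linearly between bracketing concentrations, or set to the highest concentration if not reached. Abbreviation: GI50, concentration required for 50% inhibition of growth.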 Active and inactive are the calls of the source. Rule as the data show it: active = GI50 up to about 1.1 µM and inactive = higher. Bounds are passed on as bounds.

Some test systems named below: A498; BT-549; CCRF-CEM; EKVX; HCC 2998; HCT-116; HL-60; IGROV-1; K562; LOX IMVI; MDA-N; OVCAR-4; OVCAR-5; PC-3; RPMI-8226; SF-268; SF-295; SK-MEL-2; SK-OV-3; SW-620.
Common to all, as to assay: NCI anticancer screen, dose series, 48 h

With `Cc1c(C(=O)OCc2ccccc2)[n+]([O-])c2ccccc2[n+]1[O-]`, the GI50 is 36.1 µM (inactive) with A498; 57.9 µM (inactive) in the experiment on BT-549; < 0.01 µM (active) in the experiment on CCRF-CEM; 25.8 µM (inactive) in the experiment on EKVX; 30.8 µM (inactive) in the experiment with HCC 2998; 25.1 µM (inactive) in the experiment with HCT-116. Moreover, the GI50 in the experiment on HL-60 is 26.1 µM (inactive); in the experiment on IGROV-1 it was 13 µM (inactive); with K562, 37.6 µM (inactive); in the experiment on LOX IMVI, 20 µM (inactive); in the experiment with MDA-N, 41.6 µM (inactive); in the experiment on OVCAR-4, 20.8 µM (inactive). Further, the GI50 in the experiment on OVCAR-5 is 60.1 µM (inactive); in the experiment on PC-3, 23.1 µM (inactive); with RPMI-8226 it was 11.6 µM (inactive); with SF-268, 34.7 µM (inactive); with SF-295, 32.7 µM (inactive); in the experiment with SK-MEL-2, 32.8 µM (inactive). Besides, in the experiment with SK-OV-3, the GI50 was 28 µM (inactive).
`NC(CSC(c1ccccc1)(c1ccccc1)c1ccccc1)C(=O)O` (stereo unspecified): the GI50 in the experiment with A498 was 1.51 µM (inactive); in the experiment with BT-549, 0.975 µM (active); in the experiment on CCRF-CEM it was 0.583 µM (active); in the experiment with EKVX, 1.19 µM (inactive); in the experiment on HCC 2998 it was 0.716 µM (active); with HCT-116, 0.615 µM (active). Further, the GI50 is 0.433 µM (active) with HL-60; 2.12 µM (inactive) in the experiment on IGROV-1; 0.509 µM (active) in the experiment on K562; 0.802 µM (active) in the experiment with LOX IMVI; 1.08 µM (active) in the experiment with MDA-N; 7.5 µM (inactive) in the experiment with OVCAR-4. Besides, the GI50 in the experiment on OVCAR-5 was 15.4 µM (inactive); in the experiment with PC-3 it was 1.61 µM (inactive); with RPMI-8226, 0.569 µM (active); in the experiment with SF-268, 1.27 µM (inactive); with SK-MEL-2 it was 0.605 µM (active); with SK-OV-3 it was 0.634 µM (active). Moreover, the GI50 in the experiment with SW-620 is 0.741 µM (active).
Take `CC(=O)O[C@@H]1[C@H](C(C)C)[C@@H](OC(C)=O)C/C(C)=C/CC[C@]2(C)O[C@@H]12`: the GI50 with A498, with BT-549, with EKVX, in the experiment on HCC 2998, in the experiment on HCT-116 and with HL-60 was > 100 µM (inactive) throughout. Besides, the GI50 in the experiment on IGROV-1, in the experiment on K562, in the experiment on LOX IMVI, in the experiment on MDA-N, in the experiment on OVCAR-4 and with OVCAR-5 was > 100 µM (inactive) each time. Besides, the GI50 in the experiment on PC-3, in the experiment on RPMI-8226, in the experiment with SF-268, with SF-295, with SK-MEL-2 and in the experiment on SK-OV-3 was > 100 µM (inactive) throughout. Further, the GI50 in the experiment on SW-620 is > 100 µM (inactive).
Regarding `C[C@H](NC(=O)C(C)(Cc1ccc(O)cn1)NC(=O)c1ccccc1)c1ccccc1` (stereo partly specified), the GI50 in the experiment with A498, with BT-549, in the experiment with CCRF-CEM, with EKVX, in the experiment with HCC 2998 and in the experiment with HCT-116 was > 100 µM (inactive) throughout. Further, the GI50 in the experiment with HL-60, in the experiment on IGROV-1, with K562, in the experiment on LOX IMVI, with MDA-N and in the experiment with OVCAR-4 was > 100 µM (inactive) each time. In addition, the GI50 in the experiment on OVCAR-5, in the experiment with PC-3, with RPMI-8226, with SF-268, in the experiment on SF-295 and with SK-MEL-2 was > 100 µM (inactive) each time. Besides, the GI50 in the experiment with SW-620 is > 100 µM (inactive).

The values are drawn from ChEMBL document CHEMBL1201862, “PubChem BioAssay data set” (2004).
